For assay [1], the system named is DBA/2 mice. The experiment in a line: Bleomycin-induced dermal fibrosis mouse model (prevention). The class given is in vivo. Conditions: 50 mg/kg, IP, QD, p<0.0001. As to the method: (§1) DBA/2 mice were used in this study. Eight animals were used per treatment group in the study. Mice were kept in the animal house under standard conditions with food and water ad libidum.
The vehicle, 0.5% carboxymethyl cellulose (CMC)/0.25% Tween 80, was prepared in distilled H2O and dissolved overnight on a magnetic stirrer (add 0.5 g CMC; Sigma #C9481) and 0.25 ml Tween 80 (Sigma #P8074) to 99.75 ml to make a total of 100 ml 0.5% CMC/0.25% Tween 80).
(§2) The compound was suspended, not dissolved, in this vehicle. The formulation was homogenized with a Teflon pestle and mortar (Potter-Elvehjem tissue grinder) using a motorized Eberbach tissue homogenizer. The daily drug stock concentration used in these studies was 3 mg/ml.
(§3) Bleomycin was obtained from the pharmacy of the University of Erlangen-Nuremberg and freshly prepared once a week. Skin fibrosis was induced in 6-week-old DBA mice by local intracutaneous injections of 100 μl of bleomycin dissolved in 0.9% NaCl, at a concentration of 0.5 mg/ml, every other day in defined areas of 1.5 cm^2 on the upper back.
The mouse model of bleomycin induced dermal fibrosis is widely used to evaluate anti-fibrotic therapeutics. In this model, a localized dermal fibrosis is induced by intradermal injections with bleomycin every other day for 3 weeks. This model resembles early, inflammatory stages of SSc. To evaluate potential effects on prevention of fibrosis, treatment was initiated simultaneously with the first bleomycin injection. […] Treatment consisted of administration of the vehicle (0.5% CMC/0.25% Tween 80). • Untreated bleomycin group: Intradermal injection of bleomycin for three weeks. […] Injection of Imatinib (50 mg/kg; IP, QD). […] See Akhmetshina A. et al., Arthritis Rheum 2009; 60(1):219-224.
(§4) Dermal thickness was determined by staining with hematoxylin and eosin and activated fibroblasts by using immunohistochemistry for alpha smooth muscle actin (α-SMA). The dermal thickness, as determined by the modified Rodnan Skin Score, is currently the most common primary outcome in human clinical trials for anti-fibrotic agents in SSc. […] Dermal thickness was analyzed with a Nikon Eclipse 80i microscope (Nikon, Badhoevedorp, The Netherlands) by measuring the maximal distance between the epidermal-dermal junction and the dermal-subcutaneous fat junction at 4 different skin sections in each mouse. […]
(§5) For quantification of myofibroblasts, skin sections were deparaffinized and incubated with 5% bovine serum albumin for 60 minutes. Cells positive for α-SMA were detected by incubation with monoclonal anti-α-SMA antibodies (clone 1A4; Sigma-Aldrich, Steinheim, Germany) for 2 hours at room temperature followed by incubation with 3% hydrogen peroxide for 10 minutes. […]

Assay [2] relates to DBA/2 mice. Briefly: Bleomycin-induced dermal fibrosis mouse model (regression of established fibrosis). The class given is in vivo. The conditions noted are these: 50 mg/kg, p<0.0001. As for the experimental part: as §1, §2, §3
To evaluate regression of fibrosis, a modified model of bleomycin induced dermal fibrosis was used. Mice were pre-challenged with bleomycin to induce a robust skin fibrosis. One group received treatment with the test compound, while challenge with bleomycin was ongoing for additional three weeks. The outcome of this group was compared to mice challenged with bleomycin for six weeks (prevention of further progression) and to mice challenged with bleomycin for three weeks followed by NaCl for additional three weeks (induction of regression). The following groups were used in the regression study: • Control group: Intradermal injection of NaCl for six weeks. Control treatment consisted of administration of the vehicle. • Untreated bleomycin group 1 (regression): Intradermal injection of bleomycin for three weeks followed by intradermal injections of NaCl for another three weeks. Treatment consisted of administration of the vehicle. […]
as §4, §5

A further assay has as its system Tsk-1 mouse. The experiment in a line: Tight skin-1 (Tsk-1) mouse model: hypodermal thickness and hydroxyproline. Conditions: 50 mg/kg; p≤0.001. The class given is in vivo. The text has this: First, the inhibitory effects of the compound on fibrosis in the Tsk-1 tight skin mouse model were also investigated.
The subject of assay [3] is IgG. Briefly: IgG production by SLE patient PBMC (ELISA). Conditions: Homo sapiens, read-out: IgG IC50 (nM) SLE (n = 3). In general terms: ELISA stands for enzyme-linked immunosorbent assay.
Assay [4] relates to IgM. Briefly: IgM production by SLE patient PBMC (ELISA). Conditions: Homo sapiens, read-out: IgM IC50 (nM) SLE (n = 3).
Assay [5] relates to IgM. Briefly: IgM production in normal PBMC differentiation cultures (ELISA). Conditions: Homo sapiens, read-out: IgM IC50 (nM) Normal (n = 3).
Assay [6] has as its system IgG. Briefly: IgG production in normal B cell / PBMC differentiation cultures (ELISA). Conditions: Homo sapiens.
The target of the next assay is T1, CRBN (Homo sapiens, UniProt Q96SW2).
T1 construct: endogenous in cells; host or cells: U266 multiple myeloma cells (cell extracts)
Briefly: Competitive CRBN binding with thalidomide analog-conjugated beads (U266 extracts). Conditions: preincubation at 3 uM. As to the method: Binding studies to CRBN were conducted using thalidomide analog-conjugated beads in a competitive assay. […] Affinity beads coupled to a thalidomide acid analog were incubated with the U266 extracts and, after extensive washing of the beads, the bound proteins were eluted. CRBN binding to the thalidomide-coupled affinity beads was determined by quantitative CRBN immunoblot determination.

A further assay relates to IL-2. The experiment in a line: T-cell costimulation: IL-2 production (immobilized anti-CD3, ELISA). The class given is cell-based. The conditions noted are these: Homo sapiens, 48 h, read-out: EC50 for co-stimulated IL-2 production by T cells. As for the experimental part:
CRBN ubiquitination was measured in HEK293T cells, which were transfected with an amino-terminal His-biotin-tagged CRBN construct, then preincubated with compounds for one hour followed by treatment with the MG132 proteasome inhibitor (to arrest degradation of ubiquitinated proteins). Cells were lysed and processed to measure CRBN ubiquitination by SDS-PAGE and immunoblot analysis using an anti-ubiquitin antibody. Cell proliferation studies were conducted in enalidomide-sensitive and refractory multiple myeloma cells. […] T-cell costimulation was measured in purified primary human T cells stimulated using immobilized anti-CD3 antibody in cell culture for 2 days, and cytokine secretion was measured by ELISA.

Setting [7] is: PBMC, read-out: IgG IC50 (nM) Normal (n = 3).

The IC50 is the concentration at which inhibition is half-maximal. By EC50 is commonly meant the midpoint of the concentration-response curve.

For the compound `Cc1ccc(NC(=O)c2ccc(CN3CCN(C)CC3)cc2)cc1Nc1nccc(-c2cccnc2)n1` [Imatinib, reference compound], the “reduction of dermal thickening” value in the assay on DBA/2 mice [1] (3 weeks) was found to be 60±0.34%. Besides, in the assay on DBA/2 mice [1], the “reduction of myofibroblast numbers” value is 81±0.11%. For the same compound, in the assay on DBA/2 mice [2], the “reduction of bleomycin induced dermal thickness” value came out at 50±0.3% and the “reduction of myofibroblast numbers” value stood at 78±0.15%. Moreover, in the assay on Tsk-1 mouse, the “reduction of collagen content of the skin (hydroxyproline levels)” value is listed as 67% and the “reduction of hypodermal thickening” value is 58%.
With `CCOc1cc([C@@H](CS(C)(=O)=O)N2C(=O)c3cccc(NC(C)=O)c3C2=O)ccc1OC` [apremilast], the 50% inhibitory concentration (IC50) in the assay on IgG [3], with IgM [4], in the assay with IgM [5] and with IgG [6] (setting [7]) was > 10000 nM each time.
Take `Nc1cccc2c1CN(C1CCC(=O)NC1=O)C2=O` (stereo not drawn) [lenalidomide]: the IC50 with IgG [6] (read-out: IgG production IC50) came out at 320 nM.
As for `Nc1cccc2c1C(=O)N(C1CCC(=O)NC1=O)C2=O` (stereo not drawn) [pomalidomide], the “less CRBN bound to the affinity beads” value at CRBN is given as “approximately 50%”. Also, in the assay with IL-2, the EC50 came to 10 nM. The 50% inhibitory concentration (IC50) in the assay on IgG [3] amounted to 19 nM; in the assay on IgM [4] it was 3.8 nM; in the assay with IgM [5], 17 nM; in the assay on IgG [6] (setting [7]), 63 nM; with IgG [6] (read-out: IgG production IC50) it was 49 nM.

For the origin of these results see US11524950B2, “Treatment of immune-related and inflammatory diseases” (Celgene Corporation, priority 2012, dated 2022).
